Source: patent US9029401B2 (The Regents of the University of California, priority 2011, dated 2015)
Read-outs that look alike come from different tables or passages of the source. Blank lines part the entries; values can stand above or below the compound they belong to.

Columns and labels:
[1] = system: ACHN renal cell carcinoma cell line; assay: MTT cell viability assay, ACHN; assay type: cell-based; conditions: Homo sapiens, 72 h, read-out: EC50 on cell viability, ACHN (Kidney)
Description: (§1) Cell-based assays were performed using the described cell lines, grown in the appropriate Growth Mediums containing 10% fetal bovine serum and 1% penicillin-streptomycin. Cancer cells were plated at 15,000 cells/well in 96-well plates and allowed to attach overnight. […] Cell viability was determined after 72 hours incubation periods. To determine anti-proliferative effects of inhibitors, cellular proliferation was determined using the colorimetric MTT cell viability assay kit, as described by the manufacture (ATCC).

human sEH = human sEH (Homo sapiens (Human), UniProt P34913); assay: Inhibitory activity against human sEH; assay type: biochemical
Huh-7 hepatoma cell line = assay: MTT cell viability assay, Huh-7; assay type: cell-based; conditions: Homo sapiens, read-out: EC50 on cell viability, Huh-7 (Liver)
Description: as §1

HepG2 hepatoma cell line = assay: MTT cell viability assay, HepG2; assay type: cell-based; conditions: for EC50: Homo sapiens, read-out: EC50 on cell viability, HepG2 (Liver)
Description: as §1

Raf-1 = Raf-1 (Homo sapiens (Human), UniProt P04049); assay: In vitro kinase inhibition assay (ADP-Glo), Raf-1; assay type: biochemical
Description: (§2) All measurements included background and control (vehicle only) luminescence readings.
(§3) The kinases Raf-1 and b-Raf (V600E), and their corresponding substrate, MEK1, and Full length recombinant CRAF kinase and its respective substrate, recombinant MEK1, were purchased from US Biological (Swampscott, Mass.). All assays were performed under identical conditions for the Raf isozymes: 10 nM Enzyme, 1 μM MEK1, 10 μM ATP, at 22° C. for 2 hours. […] IC50 values were obtained by determining the change in the ADP production (luminescence signal) at various inhibitor concentrations as compared to the control assay. Individual data sets were performed in duplicate and each IC50 was determined by the average and standard deviation of three separate experiments.
as §3, with “Full” for “The kinases Raf-1 and b-Raf (V600E), and their corresponding substrate, MEK1, and Full”, “at” for “under identical conditions for the Raf isozymes:”, “CRAF,” for “Enzyme,”, “(luminescent” for “(luminescence”, “mean” for “average”

b-Raf (V600E) = b-Raf (V600E) (Homo sapiens (Human), UniProt P15056, V600E); assay: In vitro kinase inhibition assay (ADP-Glo), b-Raf (V600E); assay type: biochemical
Description: as §2, §3

[2] = system: SKBR3 breast cancer cell line; assay: MTT cell viability assay, SKBR3; assay type: cell-based; conditions: Homo sapiens, read-out: EC50 on cell viability, SKBR3 (Breast)
Description: (§4) Cell-based assays were performed using the described cell lines, grown in the appropriate Growth Mediums containing 10% fetal bovine serum and 1% penicillin-streptomycin. Cancer cells were plated at 15,000 cells/well in 96-well plates and allowed to attach overnight. Inhibitors were dissolved in DMSO and then diluted to concentrations ranging from 0.1-25 μM with a final DMSO concentration of 0.1%. Cell viability was determined after 72 hours incubation periods. To determine anti-proliferative effects of inhibitors, cellular proliferation was determined using the colorimetric MTT cell viability assay kit, as described by the manufacture (ATCC).

[3] = system: T47D breast cancer cell line; assay: MTT cell viability assay, T47D; assay type: cell-based; conditions: Homo sapiens, 72 hours incubation
Description: as §4

[4] = system: PC-3 prostate cancer cell line; assay: MTT cell viability assay, PC-3; assay type: cell-based; conditions: 72 h, read-out: EC50 on cell viability, PC-3 (Prostate)
Description: as §4

[5] = 10 nM enzyme, 1 μM MEK1, 10 μM ATP, 22° C., 2 hours, read-out: Raf-1 IC50

Chain of b-Raf (V600E) (P15056 whole entry V600E): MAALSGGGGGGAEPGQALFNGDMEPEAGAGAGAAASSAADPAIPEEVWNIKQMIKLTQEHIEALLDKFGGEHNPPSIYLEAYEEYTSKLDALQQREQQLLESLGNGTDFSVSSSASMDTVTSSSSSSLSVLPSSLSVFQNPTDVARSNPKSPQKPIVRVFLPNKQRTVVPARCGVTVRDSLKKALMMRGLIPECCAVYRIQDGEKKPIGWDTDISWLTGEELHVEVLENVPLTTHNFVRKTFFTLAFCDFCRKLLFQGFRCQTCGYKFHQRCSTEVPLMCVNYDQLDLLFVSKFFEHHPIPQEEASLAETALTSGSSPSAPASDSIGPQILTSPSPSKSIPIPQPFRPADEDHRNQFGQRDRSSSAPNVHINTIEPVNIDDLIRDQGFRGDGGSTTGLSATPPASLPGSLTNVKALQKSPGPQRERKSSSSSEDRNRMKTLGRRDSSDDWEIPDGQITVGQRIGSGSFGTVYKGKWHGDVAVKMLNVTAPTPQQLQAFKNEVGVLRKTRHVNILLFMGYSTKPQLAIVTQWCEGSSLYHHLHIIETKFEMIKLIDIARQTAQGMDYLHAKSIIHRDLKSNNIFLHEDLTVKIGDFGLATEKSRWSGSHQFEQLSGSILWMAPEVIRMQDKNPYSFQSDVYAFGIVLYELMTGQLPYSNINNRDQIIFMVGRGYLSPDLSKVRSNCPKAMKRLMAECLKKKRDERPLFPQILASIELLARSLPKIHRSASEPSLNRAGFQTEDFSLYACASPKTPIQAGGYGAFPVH
Chain of human sEH (P34913 whole entry): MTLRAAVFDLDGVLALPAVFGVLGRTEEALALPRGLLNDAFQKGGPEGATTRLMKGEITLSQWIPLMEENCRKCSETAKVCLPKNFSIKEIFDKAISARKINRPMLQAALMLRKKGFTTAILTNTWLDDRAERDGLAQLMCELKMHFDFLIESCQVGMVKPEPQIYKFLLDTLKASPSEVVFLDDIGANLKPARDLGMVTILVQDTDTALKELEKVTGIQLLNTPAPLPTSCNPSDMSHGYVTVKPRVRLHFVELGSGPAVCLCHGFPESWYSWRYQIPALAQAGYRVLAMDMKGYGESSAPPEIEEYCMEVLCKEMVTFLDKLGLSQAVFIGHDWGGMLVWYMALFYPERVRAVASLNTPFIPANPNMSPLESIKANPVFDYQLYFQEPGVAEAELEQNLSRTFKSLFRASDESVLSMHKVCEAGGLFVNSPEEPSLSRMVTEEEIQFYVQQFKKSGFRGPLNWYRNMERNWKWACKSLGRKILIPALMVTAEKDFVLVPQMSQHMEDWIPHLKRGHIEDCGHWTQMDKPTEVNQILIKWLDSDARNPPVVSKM
Chain of Raf-1 (P04049 whole entry): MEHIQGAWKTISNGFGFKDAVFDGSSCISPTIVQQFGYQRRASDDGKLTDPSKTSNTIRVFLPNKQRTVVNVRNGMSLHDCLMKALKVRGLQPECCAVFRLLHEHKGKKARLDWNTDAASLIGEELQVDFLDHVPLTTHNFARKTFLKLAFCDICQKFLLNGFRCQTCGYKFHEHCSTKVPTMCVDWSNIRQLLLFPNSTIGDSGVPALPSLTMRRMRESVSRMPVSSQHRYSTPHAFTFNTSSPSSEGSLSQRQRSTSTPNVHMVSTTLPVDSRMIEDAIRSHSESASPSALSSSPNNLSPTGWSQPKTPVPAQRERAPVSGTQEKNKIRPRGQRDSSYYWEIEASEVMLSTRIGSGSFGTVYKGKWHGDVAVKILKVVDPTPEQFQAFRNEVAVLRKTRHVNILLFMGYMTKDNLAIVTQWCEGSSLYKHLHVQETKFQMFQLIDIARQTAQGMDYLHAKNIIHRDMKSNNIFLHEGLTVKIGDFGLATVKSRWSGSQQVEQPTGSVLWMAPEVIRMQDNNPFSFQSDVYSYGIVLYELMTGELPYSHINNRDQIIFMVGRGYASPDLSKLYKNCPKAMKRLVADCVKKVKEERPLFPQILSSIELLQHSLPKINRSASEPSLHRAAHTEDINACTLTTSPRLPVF

SMILES: O=C(NC12CC3CC(CC(C3)C1)C2)N[C@H]1CC[C@H](Oc2ccc(C(=O)O)cc2)CC1 [Compound 1471, reference compound]
EC50 [1]: > 25000 nM

SMILES: CCOC(=O)c1ccc(O[C@H]2CC[C@@H](NC(=O)Nc3ccc(OC(F)(F)F)cc3)CC2)cc1 [Compound 1612, reference compound]
IC50 (human sEH; read-out: Human sEH IC50): 3.4 nM

SMILES: O=C(Nc1ccc(OC(F)(F)F)cc1)N[C@H]1CC[C@H](Oc2ccc(C(=O)O)cc2)CC1 [Compound 1728, trans-4-{4-[3-(4-Trifluoromethoxy-phenyl)-ureido]-cyclohexyloxy}-benzoic acid]
EC50 [1]: 15000 nM | EC50 (Huh-7 hepatoma cell line; Huh-7, 72 h): 20000 nM | Effect on Hep G2 cell viability (dose dependence) (HepG2 hepatoma cell line; FIG. 2): limited effect | Effect on Hep G2 cell viability (dose dependence) (HepG2 hepatoma cell line; FIG. 4): limited effect | EC50 (HepG2 hepatoma cell line; HepG2, 72 h): 15000 nM | Effect on sunitinib's ability to kill cancer cells (HepG2 hepatoma cell line; administered in combination with sunitinib, Hep G2): potentiates

SMILES: O=C(Nc1ccc(Cl)cc1)N[C@H]1CC[C@H](Oc2ccc(C(=O)O)cc2)CC1 [Compound 2084, trans-4-{4-[3-(4-Chloro-phenyl)-ureido]-cyclohexyloxy}-benzoic acid]
IC50 (Raf-1; [5]): > 10000 nM | IC50 (human sEH; read-out: Human sEH IC50): 5.5 nM

SMILES: N#Cc1ccc(O[C@H]2CC[C@H](NC(=O)Nc3ccc(Cl)c(C(F)(F)F)c3)CC2)cc1 [Compound 2182, trans-1-(4-Chloro-3-trifluoromethyl-phenyl)-3-[4-(4-cyano-phenoxy)-cyclohexyl]-urea]
IC50 (human sEH): 14.6 nM

SMILES: O=C(Nc1ccc(Cl)c(C(F)(F)F)c1)N[C@H]1CC[C@H](Oc2ccc(C(=O)O)cc2)CC1 [Compound 2221, trans-4-{4-[3-(4-Chloro-3-trifluoromethyl-phenyl)-ureido]-cyclohexyloxy}-benzoic acid]
IC50 (b-Raf (V600E)): > 10000 nM | IC50 (human sEH): 0.5 nM

SMILES: CNC(=O)c1ccc(O[C@H]2CC[C@@H](NC(=O)Nc3ccc(OC(F)(F)F)cc3)CC2)cc1 [Compound 2228, cis-N-Methyl-4-{4-[3-(4-trifluoromethoxy-phenyl)-ureido]-cyclohexyloxy}-benzamide]
IC50 (Raf-1): > 10000 nM

SMILES: CNC(=O)c1ccc(O[C@H]2CC[C@H](NC(=O)Nc3ccc(Cl)c(C(F)(F)F)c3)CC2)cc1 [Compound 2253, trans-4-{4-[3-(4-Chloro-3-trifluoromethyl-phenyl)-ureido]-cyclohexyloxy}-N-methyl-benzamide]
IC50 (human sEH; read-out: Human sEH IC50): 0.5 nM

SMILES: CC(C)(C)OC(=O)c1cc(O[C@H]2CC[C@H](NC(=O)Nc3ccc(Cl)c(C(F)(F)F)c3)CC2)ccn1 [Compound 2280, trans-4-{4-[3-(4-Chloro-3-trifluoromethyl-phenyl)-ureido]-cyclohexyloxy}-pyridine-2-carboxylic acid tert-butyl ester]
IC50 (b-Raf (V600E)): > 10000 nM

SMILES: CNC(=O)c1cc(Oc2ccc(NC(=O)NC34CC5CC(CC(C5)C3)C4)cc2)ccn1 [Compound 2287, 4-[4-(3-Adamantan-1-yl-ureido)-phenoxy]-pyridine-2-carboxylic acid methylamide]
IC50 (b-Raf (V600E)): > 10000 nM | IC50 (Raf-1; [5]): > 10000 nM | IC50 (human sEH; read-out: Human sEH IC50): 0.5 nM

SMILES: O=C(Nc1ccc(Cl)c(C(F)(F)F)c1)N[C@H]1CC[C@H](Oc2ccc(C(F)(F)F)cn2)CC1 [Compound 2288, trans-1-(4-Chloro-3-trifluoromethyl-phenyl)-3-[4-(5-trifluoromethyl-pyridin-2-yloxy)-cyclohexyl]-urea]
IC50 (b-Raf (V600E)): > 10000 nM | IC50 (Raf-1; [5]): > 10000 nM | IC50 (human sEH; read-out: Human sEH IC50): 9 nM

SMILES: CNC(=O)c1ccc(O[C@H]2CC[C@H](NC(=O)Nc3ccc(Cl)c(C(F)(F)F)c3)CC2)cn1 [Compound 2316, trans-5-{4-[3-(4-Chloro-3-trifluoromethyl-phenyl)-ureido]-cyclohexyloxy}-pyridine-2-carboxylic acid methylamide]
IC50 (b-Raf (V600E)): 1500 nM | IC50 (Raf-1; [5]): 175 ± 20 nM | IC50 (human sEH; read-out: Human sEH IC50): 0.5 nM

SMILES: CNC(=O)c1cc(O[C@H]2CC[C@@H](NC(=O)Nc3ccc(Cl)c(C(F)(F)F)c3)CC2)ccn1 [Compound 2319, cis-4-{4-[3-(4-chloro-3-trifluoromethyl-phenyl)-ureido]-cyclohexyloxy}-pyridine-2-carboxylic acid methylamide]
EC50 (Huh-7 hepatoma cell line; Huh-7, MTT, 72 hours incubation): 8500 nM | EC50 ([2]; SK-BR-3, MTT, 72 hours incubation): 8000 nM | EC50 (HepG2 hepatoma cell line; HepG2, MTT, 72 hours incubation): 7500 nM | IC50 (human sEH; read-out: Human sEH IC50): 0.5 nM

SMILES: CCN(CC)C(=O)c1cc(O[C@H]2CC[C@H](NC(=O)Nc3ccc(Cl)c(C(F)(F)F)c3)CC2)ccn1 [Compound 2574, trans-4-{4-[3-(4-Chloro-3-trifluoromethyl-phenyl)-ureido]-cyclohexyloxy}-pyridine-2-carboxylic acid diethylamide]
IC50 (Raf-1; [5]): > 10000 nM | IC50 (human sEH; read-out: Human sEH IC50): 0.5 nM

SMILES: N#Cc1ccc(O[C@H]2CC[C@H](NC(=O)Nc3ccc(C(F)(F)F)cc3)CC2)cc1 [Compound 2579, trans-1-[4-(4-Cyano-phenoxy)-cyclohexyl]-3-(4-trifluoromethyl-phenyl)-urea]
IC50 (human sEH; read-out: Human sEH IC50): 0.5 nM

SMILES: N#Cc1ccc(O[C@H]2CC[C@H](NC(=O)Nc3ccc(OC(F)(F)F)cc3)CC2)cc1 [Compound 2581, trans-1-[4-(4-Cyano-phenoxy)-cyclohexyl]-3-(4-trifluoromethoxy-phenyl)-urea]
IC50 (human sEH; read-out: Human sEH IC50): 0.5 nM

SMILES: CNC(=O)c1cc(Oc2ccc(NC(=O)Nc3ccc(Cl)c(C(F)(F)F)c3)cc2)ccn1 [Sorafenib, reference compound]
EC50 [3]: 3000 nM | EC50 [4]: 5500 nM | EC50 [1]: 4000 nM | EC50 (Huh-7 hepatoma cell line; Huh-7, 72 h): 4200 nM | EC50 ([2]; SK-BR-3, 72 h): 6500 nM

Other lines, results leading:

IC50 (Raf-1; [5]): > 10000 nM | IC50 (human sEH; read-out: Human sEH IC50): 0.5 nM
SMILES: CC(C)(C)OC(=O)c1ccc(O[C@H]2CC[C@H](NC(=O)Nc3ccc(Cl)c(C(F)(F)F)c3)CC2)cn1 [Compound 2315, trans-5-{4-[3-(4-Chloro-3-trifluoromethyl-phenyl)-ureido]-cyclohexyloxy}-pyridine-2-carboxylic acid tert-butyl ester]

inhibition at 10 µM (b-Raf (V600E); at 10 μM concentration): 51% | inhibition at 10 µM (Raf-1; read-out: Raf-1 % inhibition, at 10 μM concentration): 54%
SMILES: CC(C)(C)OC(=O)c1cc(O[C@H]2CC[C@@H](NC(=O)Nc3ccc(Cl)c(C(F)(F)F)c3)CC2)ccn1 [Compound 2318, cis-4-{4-[3-(4-Chloro-3-trifluoromethyl-phenyl)-ureido]-cyclohexyloxy}-pyridine-2-carboxylic acid tert-butyl ester]

IC50 (Raf-1; [5]): > 10000 nM | IC50 (human sEH; read-out: Human sEH IC50): 0.9 nM
SMILES: O=C(Nc1ccc(C(F)(F)F)cc1)N[C@H]1CC[C@H](Oc2ccc(C(=O)O)cc2)CC1 [Compound 2372, trans-4-{4-[3-(4-Trifluoromethyl-phenyl)-ureido]-cyclohexyloxy}-benzoic acid]

IC50 (Raf-1; [5]): > 10000 nM | IC50 (human sEH; read-out: Human sEH IC50): 0.5 nM
SMILES: CNC(=O)c1cc(O[C@H]2CC[C@H](NC(=O)Nc3ccc(OC(F)(F)F)cc3)CC2)ccn1 [Compound 2575, trans-4-{4-[3-(4-Trifluoromethoxy-phenyl)-ureido]-cyclohexyloxy}-pyridine-2-carboxylic acid methylamide]

IC50 (human sEH; read-out: Human sEH IC50): 0.5 nM
SMILES: CCN(CC)C(=O)c1cc(O[C@H]2CC[C@H](NC(=O)Nc3ccc(OC(F)(F)F)cc3)CC2)ccn1 [Compound 2577, trans-4-{4-[3-(4-Trifluoromethoxy-phenyl)-ureido]-cyclohexyloxy}-pyridine-2-carboxylic acid diethylamide]

IC50 (human sEH; read-out: Human sEH IC50): 0.5 nM
SMILES: O=C(Nc1ccc(OC(F)(F)F)cc1)N[C@H]1CC[C@H](Oc2ccnc(C(=O)N3CCCC3)c2)CC1 [Compound 2578, trans-1-{4-[2-(Pyrrolidine-1-carbonyl)-pyridin-4-yloxy]-cyclohexyl}-3-(4-trifluoromethoxy-phenyl)-urea]

IC50 (human sEH; read-out: Human sEH IC50): 0.5 nM
SMILES: N#Cc1ccc(O[C@H]2CC[C@H](NC(=O)Nc3ccc(Cl)cc3)CC2)cc1 [Compound 2580, trans-1-(4-Chloro-phenyl)-3-[4-(4-cyano-phenoxy)-cyclohexyl]-urea]
